Experimental data from the supplement of paper PMC10307832.

Tests used:
Assay in all cases: relative viability (nuclei count vs DMSO), 5 days (fraction); higher = more cells survive
[1] = compound: CN(C)CC1=CC(=CC=C1)N=C(C2=CC=CC=C2)C3=C(NC4=C3C=CC(=C4)C(=O)N(C)C)O + CCNC(=O)c1noc(-c2cc(C(C)C)c(O)cc2O)c1-c1ccc(CN2CCOCC2)cc1 [Luminespib] (partner 0.01 µM)
In short: (§1)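 Relative viability is defined as nuclei in treated wells over nuclei in vehicle wells. Duplicate plates were run and medians reported. Lung cancer cell lines in 1536-well plates were dosed by pin tool one day after seeding, with one drug or with a fixed anchor-drug dose plus five library-drug doses (not always all listed) in √10 steps, and nuclei were counted after 5 days.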

[2] = compound: CN(C)CC1=CC(=CC=C1)N=C(C2=CC=CC=C2)C3=C(NC4=C3C=CC(=C4)C(=O)N(C)C)O + CS(=O)(=O)N1CCN(Cc2cc3nc(-c4cccc5[nH]ncc45)nc(N4CCOCC4)c3s2)CC1 [Pictilisib] (partner 1 µM)
In short: as §1

[3] = compound: CN(C)CC1=CC(=CC=C1)N=C(C2=CC=CC=C2)C3=C(NC4=C3C=CC(=C4)C(=O)N(C)C)O + CC(=O)c1c(C)c2cnc(Nc3ccc(N4CCNCC4)cn3)nc2n(C2CCCC2)c1=O [Palbociclib] (partner 0.5 µM)
In short: as §1

[4] = compound: CN(C)CC1=CC(=CC=C1)N=C(C2=CC=CC=C2)C3=C(NC4=C3C=CC(=C4)C(=O)N(C)C)O + COc1cccc2cc(-c3nc([C@H]4CC[C@H](C(=O)O)CC4)n4ncnc(N)c34)[nH]c12 [OSI-027] (partner 0.5 µM)
In short: as §1

| Cell Line | relative viability ([1]; first compound 0.08 µM) | relative viability ([1]; first compound 0.253 µM) | relative viability ([1]; first compound 0.8 µM) | relative viability ([1]; first compound 2.53 µM) | relative viability ([1]; first compound 8 µM) | relative viability ([2]; first compound 0.08 µM) | relative viability ([2]; first compound 0.253 µM) | relative viability ([2]; first compound 0.8 µM) | relative viability ([2]; first compound 2.53 µM) | relative viability ([2]; first compound 8 µM) | relative viability ([3]; first compound 0.253 µM) | relative viability ([3]; first compound 0.8 µM) | relative viability ([3]; first compound 2.53 µM) | relative viability ([3]; first compound 8 µM) | relative viability ([4]; first compound 0.08 µM) | relative viability ([4]; first compound 0.253 µM) | relative viability ([4]; first compound 0.8 µM) | relative viability ([4]; first compound 2.53 µM) | relative viability ([4]; first compound 8 µM) | relative viability ([3]; first compound 0.08 µM) |
| --- | --- | --- | --- | --- | --- | --- | --- | --- | --- | --- | --- | --- | --- | --- | --- | --- | --- | --- | --- | --- |
| NCI-H23 | 0.21 | 0.203 | 0.196 | 0.242 | 0.243 | 0.45 | 0.42 | 0.565 | 0.512 | 0.475 | 0.655 | 0.556 | 0.579 | 0.478 | 0.609 | 0.696 | 0.518 | 0.683 | 0.378 | – |
| EKVX | 0.864 | 0.921 | 1 | 0.927 | 1.06 | 0.425 | 0.452 | 0.384 | 0.431 | 0.574 | 0.385 | – | 0.373 | 0.42 | 0.718 | 0.726 | 0.781 | 0.764 | 0.739 | 0.392 |
| UMC-11 | 0.982 | 0.941 | 1.08 | 0.974 | 0.821 | 0.971 | 0.82 | 0.771 | 0.776 | 0.638 | 0.311 | 0.326 | 0.306 | 0.291 | 0.492 | 0.489 | 0.565 | 0.404 | 0.368 | 0.351 |
| NCI-H460 | 0.0333 | 0.0284 | 0.0254 | 0.0282 | 0.0318 | 0.366 | 0.295 | 0.311 | 0.313 | 0.321 | 0.221 | 0.211 | 0.132 | 0.237 | 0.615 | 0.727 | 0.824 | 0.65 | 0.335 | 0.224 |
| EMC-BAC-2 | 1.2 | 1.28 | 1.15 | 1.16 | 1.11 | 0.545 | 0.528 | 0.552 | 0.572 | 0.569 | 0.533 | 0.511 | 0.494 | 0.542 | 0.369 | 0.416 | 0.392 | 0.356 | 0.391 | 0.561 |
| NCI-H1792 | 0.501 | 0.453 | 0.386 | 0.452 | 0.385 | 0.303 | 0.248 | 0.27 | 0.207 | 0.18 | 0.638 | 0.673 | 0.641 | 0.665 | 0.77 | 0.729 | 0.709 | 0.721 | 0.58 | 0.666 |
| ABC-1 | 0.609 | 0.618 | 0.422 | 0.445 | 0.552 | 0.613 | 0.811 | 0.599 | 0.643 | 0.64 | 0.795 | 0.588 | 0.545 | 0.569 | 0.433 | 0.504 | 0.442 | 0.568 | 0.447 | 0.775 |
| NCI-H647 | 0.103 | 0.133 | 0.227 | 0.199 | 0.184 | 0.476 | 0.475 | 0.409 | 0.364 | 0.413 | 0.433 | 0.471 | 0.45 | 0.382 | 0.711 | 0.772 | 0.754 | 0.461 | 0.539 | 0.431 |
| H3255 | 0.899 | 0.894 | 0.751 | 0.836 | 0.998 | 0.548 | 0.493 | 0.386 | 0.455 | 0.475 | 0.331 | 0.336 | 0.334 | 0.343 | 0.649 | 0.592 | 0.698 | 0.682 | 0.632 | 0.304 |
| NCI-H1975 | 0.22 | 0.197 | 0.0911 | 0.324 | 0.161 | 0.306 | 0.324 | 0.245 | 0.257 | 0.275 | 0.398 | 0.456 | 0.574 | 0.339 | 0.747 | 0.0592 | 0.675 | 0.747 | 0.585 | 0.646 |
| NCI-H2023 | 0.75 | 0.75 | 0.769 | 0.577 | 0.483 | 0.263 | 0.238 | 0.222 | 0.177 | 0.21 | 0.325 | 0.357 | 0.289 | 0.36 | 0.321 | 0.468 | 0.488 | 0.318 | 0.335 | 0.332 |
| NCI-H650 | 0.843 | 0.777 | 0.872 | 0.667 | 0.861 | 1 | 0.789 | 0.955 | 0.768 | 0.766 | 0.371 | 0.387 | 0.355 | 0.364 | 0.529 | 0.561 | 0.583 | 0.507 | 0.42 | 0.319 |
| NCI-H1793 | 0.19 | 0.249 | – | 0.165 | 0.113 | 0.355 | 0.266 | 0.32 | 0.35 | 0.345 | 0.363 | 0.326 | 0.329 | 0.351 | 0.29 | 0.299 | – | 0.329 | 0.196 | 0.27 |
| NCI-H1651 | 0.892 | 0.782 | 0.894 | 0.639 | 0.87 | 0.685 | 0.647 | 0.636 | 0.474 | 0.608 | 0.505 | 0.554 | 0.521 | 0.494 | 0.846 | 0.874 | 0.731 | 0.645 | 0.783 | 0.526 |
| NCI-H1395 | 0.594 | 0.778 | 0.672 | 0.653 | 0.86 | 0.649 | 0.619 | 0.651 | 0.489 | 0.579 | 0.612 | 0.698 | 0.544 | 0.602 | 0.647 | 0.813 | 0.711 | 0.62 | 0.628 | 0.617 |
| NCI-H1437 | 1.12 | 1.14 | 1.2 | 1.06 | 1.2 | 0.465 | 0.49 | 0.489 | 0.453 | 0.44 | 0.365 | 0.317 | 0.331 | 0.368 | 1.02 | 0.917 | 0.983 | 0.877 | 0.942 | 0.339 |
